Reference: paper PMC5154303, “Flavonol and imidazole derivatives block HPV16 E6 activities and reactivate apoptotic pathways in HPV^+ cells” (Cell Death & Disease, 2016)

Columns and labels:
Format in all cases: cell-based, human
caspase 8 = assay: Caspase 8 level in SiHa cells by immunoblot; settings: 24 h
Description: (§1) Figure 6 Treatment with myricetin and spinacine (5) increases cellular levels of caspase 8 and p53. (a) SiHa cells (1 × 10^6 per well) were seeded into a six-well plate and allowed to incubate overnight. The indicated concentrations of myricetin and spinacine were added, and then cells were incubated for 24 h. Cells were then washed in 1 × PBS and then harvested, and the resulting level of caspase 8 was measured by immunoblot. (b) SiHa and C33A cells (1 × 10^6 per well) were seeded into a six-well plate and allowed to incubate overnight. In all, 200 μM of myricetin and 100 μM spinacine were added together with 4 μg/ml mitomycin C and incubated for 24 h. The resulting level of p53 was measured by enzyme-linked immunosorbent assay, and the level of p53 found in untreated cells was set at 100%. Experiments were performed in triplicate, and error bars indicate the S.D.
Cells (1 × 10^6) were collected and washed with PBS. All liquid was removed by centrifugation at 3000 r.p.m. for 5 min at 4 °C. […] Signals were measured using the Odyssey Infrared Imaging system (LI-COR Biosciences) and expressed in relative light units.

p53 = p53 ELISA in SiHa cells; settings: with 4 μg/ml mitomycin C, 24 h
Description: as §1
The p53 ELISA was performed as described previously,[26] with some modifications. Antibodies secreted by clone pAb122 (hybridoma obtained from ATCC, antibodies purified from the culture medium using protein-A Sepharose) were used as monoclonal capture antibodies. […] The average and S.D. of the replicates (a minimum of three) were calculated, normalized to the control, and used to prepare the graph.

SiHa cells = assay: Cell toxicity in SiHa cells without TRAIL (MTT); settings: overnight
Description: Figure 3 (a) HPV^+ SiHa cells are resistant to TRAIL-induced apoptosis as compared with the human osteosarcoma cell line U2OS. Cells (2 × 10^4 cells per well) were seeded into a 96-well plate, allowed to incubate overnight, and then treated with the indicated concentration of TRAIL in the presence of cycloheximide (5 μg/ml). The viability of cells was measured after overnight incubation using the MTT assay; the viability of cells untreated with TRAIL was set at 100% for each group. (b) The indicated concentrations of three small molecules were added to SiHa cells, and an MTT assay was preformed after overnight incubation. The viability of cells untreated with small molecules was set as 100%. (c) The indicated concentrations of myricetin or spinacine were added 4 h prior to TRAIL (100 ng/ml) in the presence of cycloheximide (5 μg/ml) and incubated at 37 °C overnight. […] Cell viability was measured after overnight incubation using the MTT assay, and the viability of cells untreated with either myricetin or spinacine was set at 100%. […]
The extracellular domain of human TRAIL was cloned into a pTriEx expression plasmid containing N-terminal Hisx6 tag. […] All experiments were repeated at least three times (three biological replicates, carried out on different days), with each experimental group measured in triplicate within each of these individual experiments. […]

SMILES	caspase 8 level (caspase 8; myricetin at 100 and 200 μM)	increase in p53 compared with untreated cells (p53; 200 μM) [fold]	toxicity to SiHa cells in the absence of TRAIL (SiHa cells)	caspase 8 level (caspase 8; spinacine at 50 to 200 μM)	increase in p53 compared with untreated cells (p53; 100 μM) [fold]
O=c1c(O)c(-c2cc(O)c(O)c(O)c2)oc2cc(O)cc(O)c12 [Myricetin, myricetin, reference compound]	increase	4.4	low toxicity		
O=C(O)C1Cc2[nH]cnc2CN1 (stereo not drawn) [Spinacine (5), 4,5,6,7-tetrahydro-1H-imidazo[4,5–c]pyridine-6-carboxylic acid]			low toxicity	increase	3.4
